# Data published in ChEMBL document CHEMBL3627598, “Synthesis of novel compounds containing morpholine and 5(4H)-oxazolone rings as potent tyrosinase inhibitors” (Bioorg Med Chem, 2015).
# Columns and labels:
# [1] = target: T1, Tyrosinase (Agaricus bisporus, UniProt O42713); test: Inhibition of mushroom tyrosinase using L-DOPA as substrate assessed as formation of L-DOPA chrome preincubated for 10 mins followed by addition of substrate measured over 10 mins by […]
# T1 sequence (O42713 whole entry): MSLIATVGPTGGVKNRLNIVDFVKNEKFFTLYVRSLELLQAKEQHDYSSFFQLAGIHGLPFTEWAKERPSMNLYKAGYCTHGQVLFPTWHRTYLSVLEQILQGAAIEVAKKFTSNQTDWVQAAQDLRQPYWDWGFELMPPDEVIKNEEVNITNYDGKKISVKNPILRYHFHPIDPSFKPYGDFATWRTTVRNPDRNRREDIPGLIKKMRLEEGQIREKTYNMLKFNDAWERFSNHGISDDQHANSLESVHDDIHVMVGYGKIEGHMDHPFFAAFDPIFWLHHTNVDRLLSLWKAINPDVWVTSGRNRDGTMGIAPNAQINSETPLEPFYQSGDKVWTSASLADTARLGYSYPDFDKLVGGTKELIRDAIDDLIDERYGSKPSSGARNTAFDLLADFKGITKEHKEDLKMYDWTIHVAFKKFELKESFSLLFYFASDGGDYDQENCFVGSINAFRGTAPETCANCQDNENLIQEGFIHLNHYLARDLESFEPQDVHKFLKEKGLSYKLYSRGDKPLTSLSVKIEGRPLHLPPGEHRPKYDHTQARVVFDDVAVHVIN
# [2] = target: T2, Tyrosinase (Mus musculus) (UniProt P11344); test: Inhibition of tyrosinase in mouse B16F10 cells assessed as reduction of melanin production at 20 ug/ml incubated for 72 hrs; format: cell-based; conditions: B16-F10
# T2 sequence (whole entry): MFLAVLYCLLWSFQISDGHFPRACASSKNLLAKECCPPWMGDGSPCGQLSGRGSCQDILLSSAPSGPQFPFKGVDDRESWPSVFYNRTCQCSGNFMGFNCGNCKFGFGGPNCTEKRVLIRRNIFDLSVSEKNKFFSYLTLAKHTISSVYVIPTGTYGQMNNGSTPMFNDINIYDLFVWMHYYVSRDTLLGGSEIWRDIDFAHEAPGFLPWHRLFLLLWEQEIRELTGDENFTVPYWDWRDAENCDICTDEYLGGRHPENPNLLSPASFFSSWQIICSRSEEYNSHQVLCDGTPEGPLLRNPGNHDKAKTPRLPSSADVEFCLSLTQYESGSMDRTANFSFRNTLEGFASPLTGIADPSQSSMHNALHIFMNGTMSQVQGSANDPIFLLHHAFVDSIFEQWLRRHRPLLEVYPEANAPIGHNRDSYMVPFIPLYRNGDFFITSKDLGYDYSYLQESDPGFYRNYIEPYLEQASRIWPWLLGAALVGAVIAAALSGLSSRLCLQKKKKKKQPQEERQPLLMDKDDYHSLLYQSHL
# [3] = Cytotoxicity against mouse B16F10 cells assessed as cell viability at 20 ug/ml incubated for 72 hrs by MTT assay; format: cell-based, B16-F10; conditions: read-out: Activity
SMILES,IC50 [1],inhibition [2],"viability at 72 h, 20 ug/ml [3]"
O=C1OC(c2ccc(/N=N/c3ccc(N4CCOCC4)cc3)cc2)=N/C1=C/c1ccc(Cl)cc1,18.9 µM,34.4%,61.9%
O=C1OC(c2ccc(/N=N/c3ccc(N4CCOCC4)cc3)cc2)=N/C1=C/c1ccc(F)cc1Cl,16 µM,32.4%,60.7%
O=C1OC(c2ccc(/N=N/c3ccc(N4CCOCC4)cc3)cc2)=N/C1=C/c1ccccc1[N+](=O)[O-],20.3 µM,30.7%,58.1%
O=C1OC(c2ccc(/N=N/c3ccc(N4CCOCC4)cc3)cc2)=N/C1=C/c1cccs1,13.7 µM,31.2%,56.7%
O=C1OC(c2ccc(/N=N/c3ccc(N4CCOCC4)cc3)cc2)=N/C1=C/c1ccc(F)cc1,15.8 µM,38.8%,57.2%
O=C1OC(c2ccc(/N=N/c3ccc(N4CCOCC4)cc3)cc2)=N/C1=C/c1ccccc1,17.2 µM,40.1%,62.9%
